In brackets after ≈: the same amount, converted by molar mass. Like-named read-outs stand apart in the source and are kept apart here.
How the values were obtained:
[1] = Intrinsic dissolution, rotating disk apparatus; assay type: physicochemical; details: for IDR (intrinsic dissolution rate) pH 6.8: phosphate buffer pH 6.8, 37.0 ± 0.5 °C, 100 rpm
Method: Intrinsic dissolution tests were carried out in triplicate using a rotating disk dissolution apparatus. […] The attachments containing the disks were immersed into 500 mL of phosphate buffer, pH 6.8, medium preheated at 37.0 ± 0.5 °C with the metallic rod rotating at 100 rpm.

[2] = Photostability in aqueous media (DTIC degradation / 2-AZA formation kinetics); assay type: physicochemical; details: for kg, photogeneration rate constant for 2-AZA: 5 mM solution, phosphate buffer pH 6.8, UV irradiation 5 h
Method: The mobile phase consisted of a mixture of 0.1% (v/v) aqueous formic acid solution (A) and acetonitrile (B), in a gradient elution mode (0.0–2.5 min: 0% B; 2.5–4.0 min: 0–6% B; 4.0–5.0 min: 6–0% B; and 5.0–7.0 min: 0% B), delivered at a flow rate of 0.8 mL min^–1. […] The method validation followed the ICH Q2 (R2) guideline.[31] The parameters selectivity, linearity, precision, accuracy, and limits of quantitation and detection were evaluated.
A triplicate of freshly prepared solutions at a concentration of 5 mM has been placed into clear glass vials and arranged at 30 cm from a black UV lamp (300 mm, 15 W) to be photoirradiated for 5 h.

[3] = Thermal analysis (DSC and TG); assay type: physicochemical
Method: Thermogravimetric (TG) experiments were performed on a Shimadzu DTG-60 thermobalance, placing approximately 2.0 ± 0.2 mg of each sample in alumina pans and then heating at 10 °C min^–1 under a nitrogen flow (50 mL min^–1) from 25 to 600 °C. Differential scanning calorimetry (DSC) curves were obtained using a Shimadzu DSC-60 instrument. The samples (1.0 ± 0.2 mg) were placed in aluminum pans and heated at a constant rate of 10 °C min^–1 under a nitrogen flow (50 mL min^–1). According to TG data, the DSC measurements have been conducted until the degradation temperature of each compound. Shimadzu TA-60 software was employed in the data analysis.

[4] = weak base; cited from earlier work
[5] = physchem; details: 37 °C, thermodynamic from solid
[6] = Solid-state photodegradation test (black UV lamp chamber); details: for stability, % DTIC found / stability, % 2-AZA found: after 15 days in photostability chamber
[7] = Solid-state stability under accelerated degradation conditions (40 °C, 75% RH)
[8] = pKa and ΔpKa between DTIC and coformers; details: between DTIC and the coformer, Table S4
[9] = freshly prepared (initial) solid sample
[10] = solid, after 90 days at 40 °C and 75% RH

| IDR (intrinsic dissolution rate) pH 6.8 [1] [mg cm^–2 min^–1] | kg, photogeneration rate constant for 2-AZA [2] [mM h^–1] | photodegradation in solution under UV radiation (in words) ([2]; low-pH and diluted solutions) | TG: thermally stable up to / mass loss begins at ([3]; 10 °C min^–1, nitrogen flow) | Tonset of DSC exothermic degradation peak ([3]; 10 °C min^–1, nitrogen flow) [°C] | Tonset of TG mass loss ([3]; 10 °C min^–1, nitrogen flow) [°C] | decomposition temperature (DSC exothermic degradation peak) ([3]; 10 °C min^–1, nitrogen flow) [°C] | solubility at 24 h ([5]; HCl solution, pH 1.2, simulated gastric fluid) [mg/mL] | solubility at 24 h ([5]; acetate buffer, pH 4.5, aqueous buffer) [mg/mL] | reduction in the drug content during the photostability test ([6]; 15 days UV exposure) [%] | stability, % DTIC found [6] [%] | stability, % DTIC found [7, 9] [%] | stability, % DTIC found [7, 10] [%] | increase of IDR compared to DTIC ([1]; phosphate buffer pH 6.8) | Tonset of DSC exothermic degradation peak [3] [°C] | decomposition temperature (DSC exothermic degradation peak) [3] [°C] | stability, % 2-AZA found [6] [%] | IDR compared with DTIC (in words) ([1]; phosphate buffer pH 6.8) | ΔpKa (pKa(base) − pKa(acid)) [8] | Compound | pKa [4] |
| --- | --- | --- | --- | --- | --- | --- | --- | --- | --- | --- | --- | --- | --- | --- | --- | --- | --- | --- | --- | --- |
| 1.31 ± 0.05 | 0.363 ± 0.02 | – | around 163 °C | – | 159.4 | – | – | – | – | 97.3 ± 0.2 | 99.5 ± 0.3 | 99.2 ± 0.2 | ~5.1 fold | 172.1 | 178.1 | 1.1 ± 0.1 | – | – | CN(C)N=Nc1nc[nH]c1C(N)=O.O=C(O)/C=C/C(=O)O [DTIC-H2FUM, Dacarbazine-Fumaric Acid Cocrystal] | – |
| 1.90 ± 0.06 | 0.371 ± 0.02 | – | – | – | – | – | – | – | – | 98.4 ± 0.2 | 99.6 ± 0.4 | 98.2 ± 0.4 | approximately 7.3 fold | – | – | 1.7 ± 0.2 | – | – | CN(C)N=Nc1[nH]cnc1C(N)=O.O=C(O)C=CC(=O)O [DTIC-HMAL, Dacarbazine Hydrogen-Maleate Salt] | – |
| – | – | – | – | – | – | – | – | – | – | – | – | – | – | – | – | – | – | 1.4 | O=C(O)/C=C/C(=O)O [Fumaric acid] | – |
| – | – | – | – | – | – | – | – | – | – | – | – | – | – | – | – | – | – | 2.5 | O=C(O)/C=C\C(=O)O [Maleic acid] | – |

Further lines, the compound ahead of its results:

| Compound | IDR (intrinsic dissolution rate) pH 6.8 [1] [mg cm^–2 min^–1] | kg, photogeneration rate constant for 2-AZA [2] [mM h^–1] | photodegradation in solution under UV radiation (in words) ([2]; low-pH and diluted solutions) | TG: thermally stable up to / mass loss begins at ([3]; 10 °C min^–1, nitrogen flow) | Tonset of DSC exothermic degradation peak ([3]; 10 °C min^–1, nitrogen flow) [°C] | Tonset of TG mass loss ([3]; 10 °C min^–1, nitrogen flow) [°C] | decomposition temperature (DSC exothermic degradation peak) ([3]; 10 °C min^–1, nitrogen flow) [°C] | solubility at 24 h ([5]; HCl solution, pH 1.2, simulated gastric fluid) [mg/mL] | solubility at 24 h ([5]; acetate buffer, pH 4.5, aqueous buffer) [mg/mL] | reduction in the drug content during the photostability test ([6]; 15 days UV exposure) [%] | stability, % DTIC found [6] [%] | stability, % DTIC found [7, 9] [%] | stability, % DTIC found [7, 10] [%] | increase of IDR compared to DTIC ([1]; phosphate buffer pH 6.8) | Tonset of DSC exothermic degradation peak [3] [°C] | decomposition temperature (DSC exothermic degradation peak) [3] [°C] | stability, % 2-AZA found [6] [%] | IDR compared with DTIC (in words) ([1]; phosphate buffer pH 6.8) | ΔpKa (pKa(base) − pKa(acid)) [8] | pKa [4] |
| --- | --- | --- | --- | --- | --- | --- | --- | --- | --- | --- | --- | --- | --- | --- | --- | --- | --- | --- | --- | --- |
| CN(C)/N=N/c1[nH]cnc1C(N)=O [DTIC, Dacarbazine, reference compound] | 0.26 ± 0.02 | 0.361 ± 0.04 | Complete and rapid photodegradation | 208 °C | 210.8 | 206.5 | 215.5 | 20.4 ± 0.2 (≈ 112 mM) | 3.4 ± 0.2 (≈ 18.7 mM) | 5.6 | 94.4 ± 0.5 | 100.0 ± 0.2 | 99.8 ± 0.3 | – | – | – | – | – | – | 4.4 |
| CN(C)N=Nc1nc[nH]c1C(N)=O.CN(C)N=Nc1nc[nH]c1C(N)=O.O.O.O.O.O=C(O)CC(O)(CC(=O)O)C(=O)O [DTIC-HCIT, Dacarbazine Hydrogen-Citrate Salt-Cocrystal] | 0.35 ± 0.01 | 0.338 ± 0.03 | – | – | – | – | – | – | – | – | 97.0 ± 0.4 | 99.8 ± 0.4 | 96.0 ± 0.5 | – | – | – | 1.8 ± 0.2 | equivalent to those of DTIC | – | – |
| CN(C)N=Nc1[nH]cnc1C(N)=O.O=C(O)C(=O)O [DTIC-HOXA, Dacarbazine Hydrogen-Oxalate Salt] | 5.58 ± 0.08 | 0.386 ± 0.03 | – | around 166 °C | – | 161.7 | – | – | – | – | 97.1 ± 0.3 | 100.1 ± 0.1 | 99.9 ± 0.2 | 22 fold | 170.2 | 175.0 | 2.2 ± 0.4 | – | – | – |

— publication PMC11220790 (Molecular Pharmaceutics, 2024)
